Measured values published in patent US10532995B2, “Substituted pyrazole compounds as serine protease inhibitors” (VERSEON CORPORATION, priority 2015, dated 2020).
Where a name gives a salt, the structure may show the parent alone.

The molecules below were run against T1, Human thrombin (Homo sapiens, UniProt P00734) (assay: Thrombin protease activity inhibition, chromogenic substrate S-2238). Conditions: 3 nM thrombin, 125 μM S-2238, 10 min pre-incubation, RT.
T1 construct: purchased Haematologic Technologies Inc
Assay type: biochemical
Protocol: The thrombin activity reported herein (e.g., Table A) was obtained as follows. […] Thrombin was assayed in buffer containing 0.05 M Tris (pH 7.4), 0.015 M NaCl and 0.01% PEG-8000. The final concentration of enzyme used was 3 nM thrombin. […] All assays were performed in 96-well microtiter plates at room temperature (RT). […] Inhibitor IC50 values were determined by adding test compound as ten point, three-fold serial dilutions in buffer solution, as known in the art. The plate was read at 10 minutes after substrate addition. The IC50 was calculated by plotting the percent (%) inhibition against compound concentration and fitting the data to a constrained four parameter sigmoidal curve, as known in the art.

Row | Structure (SMILES) | IC50
1 | CC1(C(=O)n2nc(C3(C)CCCNC3)cc2NCc2ccc(Cl)s2)CCOCC1 (stereo not drawn) [Entry 162, N-[(5-chlorothiophen-2-yl)methyl]-1-(4-methyloxane-4-carbonyl)-3-(3-methylpiperidin-3-yl)-1H-pyrazol-5-amine] | 1 to 10 µM
2 | COc1ccccc1C(=O)n1nc(C2CCCN2C(=O)C(C)C)cc1NCc1ccc(Cl)s1 (stereo not drawn) [Entry 91, 1-[2-(5-[(5-chlorothiophen-2-yl)methyl]amino-1-(2-methoxybenzoyl)-1H-pyrazol-3-yl)pyrrolidin-1-yl]-2-methylpropan-1-one] | 0.1 to 1 µM
3 | C=CCOC(=O)N1CCN(S(C)(=O)=O)CC1c1cc(NCc2ccc(Cl)s2)[nH]n1 (stereo not drawn) [Entry 252, prop-2-en-1-yl 2-(5-[(5-chlorothiophen-2-yl)methyl]amino-1H-pyrazol-3-yl)-4-methanesulfonylpiperazine-1-carboxylate] | > 100 µM
4 | O=C(c1cccc2c1OCCO2)n1nc(C2CNC2)cc1NCc1ccc(Cl)s1 [Entry 126, 3-(azetidin-3-yl)-N-[(5-chlorothiophen-2-yl)methyl]-1-(2,3-dihydro-1,4-benzodioxine-5-carbonyl)-1H-pyrazol-5-amine; trifluoroacetic acid] | 1 to 10 µM
5 | O=C(N1CCC(c2n[nH]c(NCc3ccc(Cl)s3)c2F)CC1)C1(O)CC1 [Entry 104, 1-[4-(5-[(5-chlorothiophen-2-yl)methyl]amino-4-fluoro-1H-pyrazol-3-yl)piperidine-1-carbonyl]cyclopropan-1-ol] | 10 to 100 µM
6 | Clc1ccc(CNc2cc(C3CCN(CC4CC4)CC3)n[nH]2)s1 [Entry 201, N-[(5-chlorothiophen-2-yl)methyl]-3-[1-(cyclopropylmethyl)piperidin-4-yl]-1H-pyrazol-5-amine] | > 100 µM
7 | C=CCOC(=O)N1CCC(c2n[nH]c(NCc3ccc(Cl)s3)c2C#N)CC1 [Entry 268, prop-2-en-1-yl 4-(5-[(5-chlorothiophen-2-yl)methyl]amino-4-cyano-1H-pyrazol-3-yl)piperidine-1-carboxylate] | 1 to 10 µM
8 | Cc1cccc(CN2CCC(c3cc(NCc4ccc(Cl)s4)[nH]n3)CC2)n1 [Entry 220, N-[(5-chlorothiophen-2-yl)methyl]-3-1-[(6-methylpyridin-2-yl)methyl]piperidin-4-yl-1H-pyrazol-5-amine] | > 100 µM
9 | C=CCOC(=O)N1CCN(C(=O)CN2CCOCC2)CC1c1cc(NCc2ccc(Cl)s2)[nH]n1 (stereo not drawn) [Entry 251, prop-2-en-1-yl 2-(5-[(5-chlorothiophen-2-yl)methyl]amino-1H-pyrazol-3-yl)-4-[2-(morpholin-4-yl)acetyl]piperazine-1-carboxylate] | > 100 µM
10 | COc1ccccc1C(=O)n1nc(C2CCCN2)cc1NCc1ccc(Cl)s1 (stereo not drawn) [Entry 159, N-[(5-chlorothiophen-2-yl)methyl]-1-(2-methoxybenzoyl)-3-(pyrrolidin-2-yl)-1H-pyrazol-5-amine] | 0.1 to 1 µM
11 | COc1ccccc1C(=O)n1nc(C2CCCNC2)cc1NCc1ccc(Cl)s1 (stereo not drawn) [Entry 157, N-[(5-chlorothiophen-2-yl)methyl]-1-(2-methoxybenzoyl)-3-(piperidin-3-yl)-1H-pyrazol-5-amine] | 0.1 to 1 µM
12 | C=CCOC(=O)N1CCN(CC(F)(F)F)CC1c1cc(NCc2ccc(Cl)s2)[nH]n1 (stereo not drawn) [Entry 248, prop-2-en-1-yl 2-(5-[(5-chlorothiophen-2-yl)methyl]amino-1H-pyrazol-3-yl)-4-(2,2,2-trifluoroethyl)piperazine-1-carboxylate] | > 100 µM
13 | Clc1ccc(CNc2cc(C3CCN(Cc4ccccc4)CC3)n[nH]2)s1 [Entry 113, 3-(1-benzylpiperidin-4-yl)-N-[(5-chlorothiophen-2-yl)methyl]-1H-pyrazol-5-amine] | > 100 µM
14 | CS(=O)(=O)N1CCCC1c1cc(NCc2ccc(Cl)s2)[nH]n1 (stereo not drawn) [Entry 174, N-[(5-chlorothiophen-2-yl)methyl]-3-(1-methanesulfonylpyrrolidin-2-yl)-1H-pyrazol-5-amine] | > 100 µM
15 | CC(C)(C)OC(=O)N1CCC(C)(c2cc(NCc3ccc(Cl)s3)n(C(=O)C3(C)CCOCC3)n2)CC1 [Entry 299, tert-butyl 4-(5-[(5-chlorothiophen-2-yl)methyl]amino-1-(4-methyloxane-4-carbonyl)-1H-pyrazol-3-yl)-4-methylpiperidine-1-carboxylate] | < 0.1 µM
16 | Clc1ccc(CNc2cc(C3CC4CCC(C3)N4)n[nH]2)s1 (stereo not drawn) [Entry 131, 3-8-azabicyclo[3.2.1]octan-3-yl-N-[(5-chlorothiophen-2-yl)methyl]-1H-pyrazol-5-amine] | > 100 µM
17 | COCC(C)(C)C(=O)n1nc(C2CCCN(C(=O)OC(C)(C)C)C2)cc1NCc1ccc(Cl)s1 (stereo not drawn) [Entry 285, tert-butyl 3-(5-[(5-chlorothiophen-2-yl)methyl]amino-1-(3-methoxy-2,2-dimethylpropanoyl)-1H-pyrazol-3-yl)piperidine-1-carboxylate] | < 0.1 µM

Row | Structure (SMILES) | IC50
18 | Clc1ccc(CNc2cc(C3CCCNC3)n[nH]2)s1 (stereo not drawn) [Entry 186, N-[(5-chlorothiophen-2-yl)methyl]-3-(piperidin-3-yl)-1H-pyrazol-5-amine] | 1 to 10 µM
19 | C=CCOC(=O)N1CCC(c2cc(NCc3ccc(Cl)s3)n(C(=O)C(C)(C)C)n2)C1 (stereo not drawn) [Entry 256, prop-2-en-1-yl 3-(5-[(5-chlorothiophen-2-yl)methyl]amino-1-(2,2-dimethylpropanoyl)-1H-pyrazol-3-yl)pyrrolidine-1-carboxylate] | < 0.1 µM
20 | COc1ccccc1C(=O)n1nc(C2(C)CCN(C(=O)OC(C)(C)C)CC2)cc1NCc1ccc(Cl)s1 [Entry 294, tert-butyl 4-(5-[(5-chlorothiophen-2-yl)methyl]amino-1-(2-methoxybenzoyl)-1H-pyrazol-3-yl)-4-methylpiperidine-1-carboxylate] | < 0.1 µM
21 | CS(=O)(=O)N1CC(c2cc(NCc3ccc(Cl)s3)[nH]n2)C1 [Entry 172, N-[(5-chlorothiophen-2-yl)methyl]-3-(1-methanesulfonylazetidin-3-yl)-1H-pyrazol-5-amine] | > 100 µM
22 | O=C(CN1CCOCC1)N1CCC(c2cc(NCc3ccc(Cl)s3)[nH]n2)CC1 [Entry 103, 1-[4-(5-[(5-chlorothiophen-2-yl)methyl]amino-1H-pyrazol-3-yl)piperidin-1-yl]-2-(morpholin-4-yl)ethan-1-one] | > 100 µM
23 | CC(C)(C)OC(=O)N1CCCC(C)(c2cc(NCc3ccc(Cl)s3)n(C(=O)c3ccsc3)n2)C1 (stereo not drawn) [Entry 288, tert-butyl 3-(5-[(5-chlorothiophen-2-yl)methyl]amino-1-(thiophene-3-carbonyl)-1H-pyrazol-3-yl)-3-methylpiperidine-1-carboxylate] | < 0.1 µM
24 | CC1(c2cc(NCc3ccc(Cl)s3)n(C(=O)c3ccsc3)n2)CCCN1 (stereo not drawn) [Entry 177, N-[(5-chlorothiophen-2-yl)methyl]-3-(2-methylpyrrolidin-2-yl)-1-(thiophene-3-carbonyl)-1H-pyrazol-5-amine; formic acid] | < 0.1 µM
25 | CS(=O)(=O)N1C2CCC1CC(c1cc(NCc3ccc(Cl)s3)[nH]n1)C2 (stereo not drawn) [Entry 226, N-[(5-chlorothiophen-2-yl)methyl]-3-8-methanesulfonyl-8-azabicyclo[3.2.1]octan-3-yl-1H-pyrazol-5-amine] | > 100 µM
26 | O=C(c1ccsc1)n1nc(C2CNC2)cc1NCc1ccc(Cl)s1 [Entry 129, 3-(azetidin-3-yl)-N-[(5-chlorothiophen-2-yl)methyl]-1-(thiophene-3-carbonyl)-1H-pyrazol-5-amine; trifluoroacetic acid] | 1 to 10 µM
27 | COc1ccccc1C(=O)n1nc(C2(C)CCCN(C(=O)OC(C)(C)C)C2)cc1NCc1ccc(Cl)s1 (stereo not drawn) [Entry 280, tert-butyl 3-(5-[(5-chlorothiophen-2-yl)methyl]amino-1-(2-methoxybenzoyl)-1H-pyrazol-3-yl)-3-methylpiperidine-1-carboxylate] | < 0.1 µM
28 | CC1CCCC(C)C1C(=O)n1nc(C2CCNCC2)cc1NCc1ccc(Cl)s1 (stereo not drawn) [Entry 151, N-[(5-chlorothiophen-2-yl)methyl]-1-(2,6-dimethylcyclohexanecarbonyl)-3-(piperidin-4-yl)-1H-pyrazol-5-amine hydrochloride] | 1 to 10 µM
29 | CN(C)S(=O)(=O)N1CCC(c2cc(NCc3ccc(Cl)s3)[nH]n2)CC1 [Entry 138, 4-(5-[(5-chlorothiophen-2-yl)methyl]amino-1H-pyrazol-3-yl)-N,N-dimethylpiperidine-1-sulfonamide] | > 100 µM
30 | CC(C)(C)OC(=O)N1CCCC(c2cc(NCc3ccc(Cl)s3)n(C(=O)C3(C)CCOCC3)n2)C1 (stereo not drawn) [Entry 287, tert-butyl 3-(5-[(5-chlorothiophen-2-yl)methyl]amino-1-(4-methyloxane-4-carbonyl)-1H-pyrazol-3-yl)piperidine-1-carboxylate] | < 0.1 µM
31 | COC(C)(C)C(=O)n1nc(C2CCNCC2)c(F)c1NCc1ccc(Cl)s1 [Entry 86, 1-(5-[(5-chlorothiophen-2-yl)methyl]amino-4-fluoro-3-(piperidin-4-yl)-1H-pyrazol-1-yl)-2-methoxy-2-methylpropan-1-one] | 0.1 to 1 µM
32 | CC(C)(C)OC(=O)N1CCCC1(C)c1cc(NCc2ccc(Cl)s2)n(C(=O)C(C)(C)CO)n1 (stereo not drawn) [Entry 274, tert-butyl 2-(5-[(5-chlorothiophen-2-yl)methyl]amino-1-(3-hydroxy-2,2-dimethylpropanoyl)-1H-pyrazol-3-yl)-2-methylpyrrolidine-1-carboxylate] | 0.1 to 1 µM
33 | CC(C)(C)C(=O)n1nc(C2CCN(CC(=O)O)CC2)cc1NCc1ccc(Cl)s1 [Entry 109, 2-[4-(5-[(5-chlorothiophen-2-yl)methyl]amino-1-(2,2-dimethylpropanoyl)-1H-pyrazol-3-yl)piperidin-1-yl]acetic acid] | 0.1 to 1 µM
